ChEMBL document CHEMBL5729039, “Macrocyclic fluorine substituted indole derivatives” (2022)

Experiments:
Bcl-2-like protein 1 = Bcl-2-like protein 1 (Homo sapiens, UniProt Q07817); experiment: (§1) Biological Assay: BCL-XL Assay: In the assay 11 different concentrations of each compound (0.1 nM, 0.33 nM, 1.1 nM, 3.8 nM, 13 nM, 44 nM, 0.15 μM, 0.51 μM, 1.7 μM, 5.9 μM and 20 μM) were typically measured as duplicates in the same microtiter plate. For that, 100-fold concentrated DMSO solutions were prepared by serial dilutions (1:3.4) of a 2 mM stock solution in a clear, 384-well microtiter plate (Greiner Bio-One, Frickenhausen, Germany). From there, 50 nl were transferred in a dark test plate (Greiner Bio-One, Frickenhausen, Germany). The assay was initiated by addition of 2 μl of a 2,5-fold concentrated His-BCL-XL solution (usually for a 1 nM end concentration in 5 μl reaction volume) in aqueous assay buffer [50 mM Tris/HCl pH 7, 100 mM sodium chloride (NaCl), 50 μM potassium fluoride (KF), 0.005% Tween-20, 2 mM DTT, 0.1% bovine gamma globulin (BGG)] to the compounds in the assay plate. This was followed by a 10-minute incubation step at 22° C. for pre-equilibration of the putative complex between His-BCL-XL and the compounds. After that, 3 μl of a 1.67-fold concentrated solution (in assay buffer) consisting of Bad BH3-derived peptide (1 nM end concentration) and TR-FRET detection reagents [1.67 nM anti-His-Eu cryptate and 1.67 nM streptavidin-XL665 (both from Cisbio Bioassays, Codolet, France)], were added.
[1] = molecular target: Apoptosis regulator Bcl-2 (Homo sapiens, UniProt P10415); experiment: as §1, with “Biological Assay 2: BCL-2” for “Biological Assay: BCL-XL”, “concentrated His-BCL-2” for “concentrated His-BCL-XL”, “50 mM” for “50 μM”, “between His-BCL-2” for “between His-BCL-XL”
Sequence of Apoptosis regulator Bcl-2 (P10415 whole entry): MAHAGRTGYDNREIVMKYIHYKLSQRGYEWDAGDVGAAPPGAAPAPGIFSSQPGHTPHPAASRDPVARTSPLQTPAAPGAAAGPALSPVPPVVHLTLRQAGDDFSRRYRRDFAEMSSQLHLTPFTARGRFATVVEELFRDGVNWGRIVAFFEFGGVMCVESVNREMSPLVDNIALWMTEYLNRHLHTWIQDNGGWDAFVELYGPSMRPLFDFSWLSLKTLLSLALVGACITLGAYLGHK

Sequence of Bcl-2-like protein 1 (Q07817 whole entry): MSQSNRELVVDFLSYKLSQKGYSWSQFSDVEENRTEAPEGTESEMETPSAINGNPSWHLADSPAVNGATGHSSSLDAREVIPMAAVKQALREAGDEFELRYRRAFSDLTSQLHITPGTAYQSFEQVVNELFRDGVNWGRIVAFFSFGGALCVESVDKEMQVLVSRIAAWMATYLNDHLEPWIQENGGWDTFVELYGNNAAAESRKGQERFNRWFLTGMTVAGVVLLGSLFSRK

SMILES | IC50 (Bcl-2-like protein 1) [µM] | IC50 [1] [µM]
CCc1c2c(nn1C)COCCCCn1c(C(=O)O)c(CCCOc3cccc4ccccc34)c3ccc(F)c-2c31 | > 20 | > 20
Cc1c2c(nn1C)C[N+](C)(C)CCCCn1c(C(=O)O)c(CCCOc3cccc4ccccc34)c3ccc(F)c-2c31 | > 20 | > 20
CCc1c2c(nn1C)COCCCCn1c(C(=O)O)c(CCCOc3ccc(F)c4ccccc34)c3ccc(F)c-2c31 | > 20 | > 20

More lines, now with the values ahead:

IC50 (Bcl-2-like protein 1) [µM] | IC50 [1] [µM] | SMILES
> 20 | > 20 | Cc1c2c(nn1C)COCCCCn1c(C(=O)O)c(CCCOc3cccc4cc(F)ccc34)c3ccc(F)c-2c31
> 20 | > 20 | CCc1nn(C)c2c1-c1c(F)ccc3c(CCCOc4cccc5cc(F)ccc45)c(C(=O)O)n(c13)CCCCOC2
> 20 | > 20 | Cc1c2c(nn1C)COCCCCn1c(C(=O)O)c(CCCOc3cccc4ccccc34)c3ccc(F)c-2c31
